Results reported in the NIST ThermoML archive (doi:10.1021/je050367p).

Assays:
[1] = xn = mol fraction of the nth substance listed; details: 100.8 kPa, Liquid; for viscosity: Capillary tube (Ostwald / Ubbelohde) method
[2] = refractive index (Na D-line) (dimensionless); xn = mol fraction of the nth substance listed; details: 100.8 kPa, Liquid, Standard Abbe refractometry

CC(C)CC(C)(C)C [2,2,4-trimethylpentane] + CCO
Details | mass density, 288.15 K [kg/m3] | mass density, 298.15 K [kg/m3] | mass density, 308.15 K [kg/m3] | refractive index, 288.15 K | refractive index, 298.15 K | refractive index, 308.15 K | viscosity, 288.15 K [mPa·s] | viscosity, 298.15 K [mPa·s] | viscosity, 308.15 K [mPa·s]
[1], x2 = 0 | 695.95 | 687.74 | 679.41 | – | – | – | 0.537 | 0.48 | 0.432
[1], x2 = 0.0502 | 697.2 | 688.84 | 680.36 | – | – | – | 0.532 | 0.473 | 0.424
[1], x2 = 0.1 | 698.76 | 690.33 | 681.76 | – | – | – | 0.535 | 0.476 | 0.426
[1], x2 = 0.15 | 700.55 | 692.11 | 683.52 | – | – | – | 0.542 | 0.48 | 0.429
[1], x2 = 0.2 | 702.53 | 694.07 | 685.43 | – | – | – | 0.551 | 0.487 | 0.434
[1], x2 = 0.25 | 704.71 | 696.21 | 687.56 | – | – | – | 0.564 | 0.497 | 0.441
[1], x2 = 0.3 | 707.1 | 698.57 | 689.88 | – | – | – | 0.58 | 0.51 | 0.451
[1], x2 = 0.35 | 709.71 | 701.17 | 692.45 | – | – | – | 0.601 | 0.526 | 0.462
[1], x2 = 0.4 | 712.6 | 704.03 | 695.3 | – | – | – | 0.625 | 0.543 | 0.476
[1], x2 = 0.45 | 715.8 | 707.2 | 698.44 | – | – | – | 0.652 | 0.565 | 0.492
[1], x2 = 0.5 | 719.31 | 710.68 | 701.91 | – | – | – | 0.682 | 0.588 | 0.51
[1], x2 = 0.55 | 723.22 | 714.59 | 705.8 | – | – | – | 0.718 | 0.615 | 0.531
[1], x2 = 0.6 | 727.55 | 718.9 | 710.11 | – | – | – | 0.755 | 0.645 | 0.554
[1], x2 = 0.65 | 732.37 | 723.73 | 714.93 | – | – | – | 0.797 | 0.677 | 0.58
[1], x2 = 0.7 | 737.81 | 729.14 | 720.34 | – | – | – | 0.843 | 0.715 | 0.609
[1], x2 = 0.75 | 743.99 | 735.34 | 726.54 | – | – | – | 0.894 | 0.755 | 0.642
[1], x2 = 0.8 | 751.11 | 742.37 | 733.58 | – | – | – | 0.952 | 0.801 | 0.678
[1], x2 = 0.85 | 759.27 | 750.54 | 741.75 | – | – | – | 1.018 | 0.854 | 0.72
[1], x2 = 0.9 | 768.81 | 760.17 | 751.44 | – | – | – | 1.095 | 0.915 | 0.769
[1], x2 = 0.95 | 780.26 | 771.59 | 762.84 | – | – | – | 1.19 | 0.991 | 0.828
[2], x2 = 0 | – | – | – | 1.39404 | 1.389 | 1.38395 | – | – | –
[2], x2 = 0.0502 | – | – | – | 1.39319 | 1.3881 | 1.38297 | – | – | –
[2], x2 = 0.1 | – | – | – | 1.39241 | 1.3873 | 1.38217 | – | – | –
[2], x2 = 0.15 | – | – | – | 1.39162 | 1.38651 | 1.38138 | – | – | –
[2], x2 = 0.2 | – | – | – | 1.39081 | 1.38569 | 1.38056 | – | – | –
[2], x2 = 0.25 | – | – | – | 1.38996 | 1.38485 | 1.37972 | – | – | –
[2], x2 = 0.3 | – | – | – | 1.38907 | 1.38397 | 1.37885 | – | – | –
[2], x2 = 0.35 | – | – | – | 1.38811 | 1.38304 | 1.37794 | – | – | –
[2], x2 = 0.4 | – | – | – | 1.38709 | 1.38204 | 1.37696 | – | – | –
[2], x2 = 0.45 | – | – | – | 1.38597 | 1.38099 | 1.37593 | – | – | –
[2], x2 = 0.5 | – | – | – | 1.38479 | 1.37984 | 1.3748 | – | – | –
[2], x2 = 0.55 | – | – | – | 1.3835 | 1.37858 | 1.37358 | – | – | –
[2], x2 = 0.6 | – | – | – | 1.38209 | 1.37722 | 1.37227 | – | – | –
[2], x2 = 0.65 | – | – | – | 1.38055 | 1.37573 | 1.37083 | – | – | –
[2], x2 = 0.7 | – | – | – | 1.37884 | 1.37408 | 1.36922 | – | – | –
[2], x2 = 0.75 | – | – | – | 1.37694 | 1.37225 | 1.36745 | – | – | –
[2], x2 = 0.8 | – | – | – | 1.37484 | 1.3702 | 1.3655 | – | – | –
[2], x2 = 0.85 | – | – | – | 1.37249 | 1.36792 | 1.3633 | – | – | –
[2], x2 = 0.9 | – | – | – | 1.36984 | 1.36536 | 1.36085 | – | – | –
[2], x2 = 0.95 | – | – | – | 1.36684 | 1.36248 | 1.35812 | – | – | –
